Key:
[1] = biological target: T1, AdeB multidrug efflux pump (Acinetobacter baumannii, UniProt Q2FD70); experiment: fluorescence polarization Kd with purified AdeB; cryo-EM structures in lipidic nanodiscs (7KGG, 7KGH, 7KGI); format: binding; design: full-length; homotrimer
[2] = biological target: T1, AdeB multidrug efflux pump; experiment: fluorescence polarization titration with purified AdeB; format: binding; design: full-length
[3] = biological target: Acinetobacter baumannii AdeB multidrug efflux pump (Acinetobacter baumannii (AB0057)); experiment: cryo-EM structure; AdeB in lipidic nanodiscs (MSP 1E3D1, E. coli total extract lipid; 20 mM Tris-HCl pH 7.5, 100 mM NaCl); 2 uM AdeB-nanodisc incubated with 20 uM ethidium bromide for 2 h; six conformational classes (three apo, three Et-bound) sorted from one sample
[4] = biological target: CusB (Escherichia coli) (UniProt P77239); experiment: ITC; details: cited from earlier work

Sequence of CusA (P38054 whole entry): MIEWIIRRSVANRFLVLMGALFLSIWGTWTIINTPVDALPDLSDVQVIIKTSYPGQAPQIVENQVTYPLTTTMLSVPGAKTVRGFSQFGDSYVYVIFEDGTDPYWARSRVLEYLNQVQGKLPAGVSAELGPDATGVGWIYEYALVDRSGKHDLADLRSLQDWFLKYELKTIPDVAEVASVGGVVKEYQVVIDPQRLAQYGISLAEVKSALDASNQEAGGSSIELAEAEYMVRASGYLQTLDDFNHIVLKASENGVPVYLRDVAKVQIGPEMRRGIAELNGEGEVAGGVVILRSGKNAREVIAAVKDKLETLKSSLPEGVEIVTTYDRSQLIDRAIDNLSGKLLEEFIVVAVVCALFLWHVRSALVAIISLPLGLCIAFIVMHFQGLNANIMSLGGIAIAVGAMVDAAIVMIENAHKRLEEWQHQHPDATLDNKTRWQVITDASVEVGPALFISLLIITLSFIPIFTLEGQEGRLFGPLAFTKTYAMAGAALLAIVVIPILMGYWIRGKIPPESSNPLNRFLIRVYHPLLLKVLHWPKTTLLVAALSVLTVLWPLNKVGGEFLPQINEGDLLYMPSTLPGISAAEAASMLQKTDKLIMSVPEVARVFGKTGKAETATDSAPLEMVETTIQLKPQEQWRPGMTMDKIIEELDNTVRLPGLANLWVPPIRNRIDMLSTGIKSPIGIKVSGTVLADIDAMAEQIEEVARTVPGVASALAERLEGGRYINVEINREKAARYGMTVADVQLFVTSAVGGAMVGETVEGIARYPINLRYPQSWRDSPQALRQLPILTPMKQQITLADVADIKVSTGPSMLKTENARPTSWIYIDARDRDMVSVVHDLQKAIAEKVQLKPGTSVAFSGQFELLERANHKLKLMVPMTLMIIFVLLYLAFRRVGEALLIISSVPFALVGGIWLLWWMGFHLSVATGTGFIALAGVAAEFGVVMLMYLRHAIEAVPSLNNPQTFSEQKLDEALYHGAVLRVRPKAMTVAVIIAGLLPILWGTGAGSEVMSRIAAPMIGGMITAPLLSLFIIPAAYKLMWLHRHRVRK

For CC[n+]1c(-c2ccccc2)c2cc(N)ccc2c2ccc(N)cc21 [Et, ethidium bromide], the Kd [1] was 2.5 ± 0.1 µM.

In the case of CC/N=c1\cc2oc3cc(NCC)c(C)cc3c(-c3ccccc3C(=O)OCC)c-2cc1C [R6G, rhodamine 6G], the Kd [2] is reported as 3.1 ± 0.1 µM.

For “Acinetobacter baumannii AdeB multidrug efflux pump (natural protein)”, the stoichiometry N [3] was 3.

For CusA (from UniProt P38054), the Kd [4] is listed as 5.1 µM.
